Laboratory results from US6689767B2, “Triterpenes having antibacterial activity” (Regents of the University of Minnesota, priority 2000, dated 2004).
≈ marks a conversion by molar mass, not a printed value.

What was measured:
[1] = tested on: methicillin resistant S. aureus; experiment: Minimum inhibitory concentration in tryptic soy broth, methicillin resistant S. aureus; type: cell-based, Staphylococcus aureus; conditions: 24 hours 37° C., turbidity
Method: (§1) Sterile tryptic soy broth was prepared according to the manufacturer's instructions (Difco Lab, Michigan). To each tube containing 7 ml of broth, test compounds dissolved in DMSO were added at different concentrations in triplicate. The tubes were incubated for 24 hours at 37° C. and then turbidity was measured using a […]. The colorimeter was calibrated with sterile broth. The MIC was the lowest concentration that could prevent an increase in turbidity.

S. aureus = experiment: Minimum inhibitory concentration in tryptic soy broth, S. aureus; type: cell-based, Staphylococcus aureus; conditions: 24 hours 37° C., turbidity
Method: as §1

[2] = tested on: methicillin-resistant Staphylococcus aureus; experiment: Growth inhibition of methicillin-resistant Staphylococcus aureus; type: cell-based
Method: The compounds disclosed herein were tested for growth inhibition against four strains of bacteria: Escherichia coli, Staphylococcus aureus, methicillin-resistant Staphylococcus aureus, and Bacillus subtilis. […] They represent […]. E. coli is a gram-negative, non-spore forming, rod-shaped, opportunistic pathogen that resides in the human digestive tract. S. aureus is a gram positive coccus, is usually found morphologically as a […], and is an opportunistic human pathogen, often residing on or in the skin. B. subtilis is a gram positive spore-forming rod. Its native environment is the soil. The chemicals were tested for growth-inhibition of the bacteria by the Kirby-Bauer method. See, e.g., Microbiology, third edition; Lansing M. Prescott, John P. Harley, and Donald A. Klein; Wm. C. Brown Publishers.
Mueller-Hinton agar (Difco Lab, Michigan) was prepared according to the manufacturer's directions, and 20 ml was dispensed in each sterile petri dish. Sterile nutrient broth (Difco Lab, Michigan) was also prepared according to the manufacturer's directions.
Bacteria were grown in liquid nutrient broth for 18 hours at 37° C. until they were turbid.
An aliquot of 0.5 ml of cultured bacteria was aseptically transferred to the surface of a Mueller-Hinton agar plat, and spread using a cotton-tipped swab. […]
The zones of inhibition were measured after 18 hours growth at 37° C. […]

Bacillus subtilis = experiment: Kirby-Bauer disk diffusion growth inhibition, Bacillus subtilis; type: cell-based; conditions: 100 μl on 10 mm disk, 18 hours 37° C.
Method in brief: (§2)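 Bacteria grown 18 h at 37 °C in nutrient broth, 0.5 ml swabbed onto Mueller-Hinton agar; 10 mm disks loaded with 100 μl compound in DMSO or water (additional compounds at 10 mg/ml in DMSO). Inhibition zones measured after 18 h at 37 °C, in triplicate.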

Staphylococcus aureus = experiment: Kirby-Bauer disk diffusion growth inhibition, Staphylococcus aureus; type: cell-based; conditions: for Zone of inhibition Staphylococcus aureus: 100 μl on 10 mm disk, 18 hours 37° C.; for Active against: Table 1 summary, S. aureus; for effectiveness against S. aureus: Tables 1a and 1b
Method in brief: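 S. aureus broth culture (18 h, 37 °C) spread on Mueller-Hinton agar; 10 mm disks carrying 100 μl compound solution in DMSO or water, one set at 10 mg/ml in DMSO. Inhibition zones measured after 18 h at 37 °C, in triplicate.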

Escherichia coli = experiment: Kirby-Bauer disk diffusion growth inhibition, Escherichia coli; type: cell-based; conditions: for Zone of inhibition Escherichia coli: 100 μl on 10 mm disk, 18 hours 37° C.
Method in brief: as §2

E. Coli = experiment: Minimum inhibitory concentration in tryptic soy broth, E. coli; type: cell-based, Escherichia coli; conditions: 24 hours 37° C., turbidity
Method: as §1

bacteria = experiment: Summary statements over the antibacterial assays above; type: cell-based; conditions: summary list

SMILES | MIC [1] | minimum inhibitory concentration (S. aureus) | effectiveness against methicillin resistant S. aureus [2] | Active against ([2]; Table 1 summary, S. aureus methicillin resistant) | Zone of inhibition Bacillus subtilis (Bacillus subtilis; 10 mg/ml in DMSO) | Zone of inhibition Staphylococcus aureus (Staphylococcus aureus; 10 mg/ml in DMSO) | Active against (Staphylococcus aureus) | effectiveness against S. aureus (Staphylococcus aureus) | amount applied to the disk that inhibited S. aureus (Staphylococcus aureus; disk diffusion assay, laboratory strain (not methicillin resistant)) | effectiveness against S. aureus compared with streptomycin (Staphylococcus aureus; laboratory strain (not methicillin resistant)) | Zone of inhibition Escherichia coli (Escherichia coli; 10 mg/ml in DMSO) | MIC (E. Coli) | Zone of inhibition Bacillus subtilis (Bacillus subtilis; 125 ng/ml in water) | active against at least one strain of bacteria in the assays above (bacteria) | Zone of inhibition Staphylococcus aureus (Staphylococcus aureus; 125 ng/ml in water) | Zone of inhibition Escherichia coli (Escherichia coli; 125 ng/ml in water) | Active against (Escherichia coli; Table 1 summary, E. coli) | effectiveness against E. Coli (Escherichia coli; Tables 1a and 1b) | sensitivity of S. aureus (Staphylococcus aureus; Example 34, 10 mg/ml in DMSO)
C=C(C)[C@@H]1CC[C@]2(COC(=O)/C=C\C(=O)O)CC[C@]3(C)[C@H](CC[C@@H]4[C@@]5(C)CC[C@H](OC(=O)/C=C\C(=O)O)C(C)(C)[C@@H]5CC[C@]43C)[C@@H]12 [Betulin 3,28-dimaleate, Betulin-3,28-dimaleate] | 0.282 µM (≈ 0.18 µg/mL) | 2.3 µM (≈ 1.47 µg/mL) | effective | S. aureus methicillin | 0 mm | 11.0 mm | S. aureus, | effective | 56 ng | more effective | 0 mm |  |  |  |  |  |  |  | 
C=C(C)[C@@H]1CC[C@]2(COC(=O)CCCC(=O)O)CC[C@]3(C)[C@H](CC[C@@H]4[C@@]5(C)CC[C@H](OC(=O)CCCC(=O)O)C(C)(C)[C@@H]5CC[C@]43C)[C@@H]12 [Betulin 3,28-diglutarate, Betulin-3,28-diglutarate] |  |  |  |  | 0 mm | 0 mm |  |  |  |  | 0 mm | 0.282 µM (≈ 0.189 µg/mL) | 0 mm | active against at least one strain of bacteria | 0 mm | 12.0 mm | E. coli | effective | 
C=C(C)[C@@H]1CC[C@]2(COC(=O)c3ccccc3C(=O)O)CC[C@]3(C)[C@H](CC[C@@H]4[C@@]5(C)CC[C@H](OC(=O)c6ccccc6C(=O)O)C(C)(C)[C@@H]5CC[C@]43C)[C@@H]12 [Betulin 3,28-diphthalate, Betulin-3,28-diphthalate] |  | 2.3 µM (≈ 1.7 µg/mL) |  |  | 0 mm | 10.0 mm | S. aureus | effective |  |  | 0 mm |  |  | active against at least one strain of bacteria |  |  |  |  | sensitive
